The values below come from patent US5962471A, “Substituted 6- and 7-aminotetrahydroisoquinolinecarboxylic acids” (Hoechst Aktiengesellschaft, priority 1997, dated 1999).

Usually IC50 stands for the midpoint of a concentration-inhibition curve. A high value points to weaker potency in that assay.

Assay [1] has as its target T1, human stromelysin (MMP-3) (Homo sapiens, UniProt P08254).
T1 construct: catalytic domains of human stromelysin and of neutrophil collagenase; made in house
The assay is described as follows: inhibition of the catalytic domain of human stromelysin (MMP-3), fluorogenic substrate. It counts as biochemical. How it is done: (§1) Preparation and determination of the enzymatic activity of the catalytic domains of human stromelysin and of neutrophil collagenase.
(§2) The two enzymes--stromelysin (MMP-3) and neutrophil collagenase (MMP-8)--were prepared according to Ye et al., Biochemistry, vol. […] To measure the enzyme activity or the enzyme inhibitor action, 70 μl of buffer solution and 10 μl of enzyme solution are incubated for 15 minutes with 10 μl of a 10% strength (v/v) aqueous dimethyl sulfoxide solution, which optionally contains the enzyme inhibitor.
(§3) The buffer solution contains 0.05% Brij (Sigma, Deisenhofen, Germany) and also 0.1 mol/l tris/HCl, 0.1 mol/l NaCl, 0.01 mol/l CaCl2 and 0.1 mol/l piperazine-N,N'-bis[2-ethanesulfonic acid] (pH=6.5). The enzyme solution contains 5 μg/ml of one of the enzyme domains prepared according to Ye et al. The substrate solution contains 1 mmol/l of the fluorogen ic substrate (7-methoxycoumarin4-yl)acetyl-Pro-Leu-Gly-Leu-3-(2',4'-dinitrophenyl)-L-2,3-diaminopropionyl-Ala-Arg-NH2 (Bachem, Heidelberg, Germany).
(§4) The enzyme activity is shown as the extinction increase/minute.

For assay [2], the system named is neutrophil collagenase (MMP-8). The assay is described as follows: inhibition of the catalytic domain of neutrophil collagenase (MMP-8), fluorogenic substrate. The following applies: fluorescence 328 nm (ex)/393 nm (em), pH=6.5, 15 min preincubation. In kind it is biochemical, human. The procedure:
as §1, §2, §3, §4

T1 sequence (P08254 100-273 limits assumed): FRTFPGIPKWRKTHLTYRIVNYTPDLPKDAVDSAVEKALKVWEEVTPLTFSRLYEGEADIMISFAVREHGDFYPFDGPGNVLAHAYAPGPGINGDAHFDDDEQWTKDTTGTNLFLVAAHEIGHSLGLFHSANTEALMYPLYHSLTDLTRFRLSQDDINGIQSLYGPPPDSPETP

`COc1ccc(S(=O)(=O)N2Cc3cc(N)ccc3C[C@@H]2C(=O)NO)cc1` [Example 10, 2-(4-Methoxybenzenesulfonyl)-7-amino-1,2,3,4-tetrahydroisoquinoline-(R)-3-(N-hydroxy)carboxamide] yielded an IC50 in assay [1] of 10 nM.
For the molecule `COc1ccc(S(=O)(=O)N2Cc3cc(NC(=O)OC(C)(C)C)ccc3C[C@@H]2C(=O)NO)cc1` [Example 11], the half-maximal inhibitory concentration (IC50) stood at 20 nM in assay [1] and 3 nM in assay [2].
Turning to `O=C(O)[C@H]1Cc2ccc([N+](=O)[O-])cc2CN1S(=O)(=O)c1ccc(-c2ccc(Cl)cc2)cc1` [Example 15], the IC50 in assay [2] stood at 30 nM.
`O=C(O)[C@H]1Cc2cc([N+](=O)[O-])ccc2CN1S(=O)(=O)c1ccc(-c2ccc(Cl)cc2)cc1` [Example 16]: in assay [2], the IC50 was 20 nM.
In turn, `O=C(O)[C@H]1Cc2ccc([N+](=O)[O-])cc2CN1S(=O)(=O)c1ccc(-c2ccc(F)cc2)cc1` [Example 17] displayed a half-maximal inhibitory concentration (IC50) in assay [2] of 40 nM.
`O=C(O)[C@H]1Cc2cc([N+](=O)[O-])ccc2CN1S(=O)(=O)c1ccc(-c2ccc(F)cc2)cc1` [Example 18] came in with an IC50 in assay [2] of 20 nM.
On to `CC(C)(C)OC(=O)Nc1ccc2c(c1)CN(S(=O)(=O)c1ccc(-c3ccc(F)cc3)cc1)[C@@H](C(=O)O)C2` [Example 20], for which the IC50 in assay [1] came out at 2000 nM; in assay [2] it was 100 nM.
For the molecule `Nc1ccc2c(c1)C[C@H](C(=O)O)N(S(=O)(=O)c1ccc(-c3ccc(F)cc3)cc1)C2` [Example 21], the IC50 amounted to 200 nM in assay [1] and 8 nM in assay [2].
For `Nc1ccc2c(c1)CN(S(=O)(=O)c1ccc(-c3ccc(F)cc3)cc1)[C@@H](C(=O)O)C2` [Example 22] the same measures were 300 nM and 8 nM.
The matching figures for `C[C@H](NC(=O)OCc1ccccc1)C(=O)Nc1ccc2c(c1)CN(S(=O)(=O)c1ccc(-c3ccc(Cl)cc3)cc1)[C@@H](C(=O)O)C2` [Example 24]: 300 nM and 60 nM.
Regarding `CC(N)C(=O)Nc1ccc2c(c1)CN(S(=O)(=O)c1ccc(-c3ccc(Cl)cc3)cc1)[C@@H](C(=O)O)C2` (some centres unmarked) [Example 25], the IC50 in assay [1] amounted to 200 nM; in assay [2], 10 nM.
The matching figures for `CC(C)(C)OC(=O)Nc1ccc2c(c1)CN(S(=O)(=O)c1ccc(-c3ccc(F)cc3)cc1)[C@@H](C(=O)NO)C2` [Example 27]: 100 nM and 10 nM.
The matching figures for `Nc1ccc2c(c1)CN(S(=O)(=O)c1ccc(-c3ccc(F)cc3)cc1)[C@@H](C(=O)NO)C2` [Example 28]: 20 nM and 2 nM.
On to `COc1ccc(S(=O)(=O)N2Cc3cc(NC(=O)[C@H](C)N)ccc3C[C@@H]2C(=O)NO)cc1` [Example 30], for which the 50% inhibitory concentration (IC50) in assay [1] stood at 30 nM.
Consider `COc1ccc(S(=O)(=O)N2Cc3cc(NC(=O)CCC(=O)O)ccc3C[C@@H]2C(=O)NO)cc1` [Example 31], for which the results for the IC50 in assay [1] and in assay [2] were 20 nM and 4 nM, respectively.
`COc1ccc(S(=O)(=O)N2Cc3cc(NC(=O)[C@H](CC(=O)OC(C)(C)C)NC(=O)OCc4ccccc4)ccc3C[C@@H]2C(=O)NO)cc1` [Example 32]: the IC50 in assay [1] worked out at 400 nM; in assay [2], 10 nM.
